Experimental data as given in US20090012045A1, “Methods of Treating Cell Proliferative Disorders” (RIGEL PHARMACEUTICALS, INC., priority 2007, published 2009).

How the values were obtained:
Ret (h) = Ret (h) (Homo sapiens, UniProt P07949); assay: RET kinase activity, [γ-33P-ATP] filter assay; format: biochemical
Description: RET kinase is pre-diluted to a 10× working concentration prior to addition into the assay. The composition of the dilution buffer is 20 mM MOPS pH 7.0, 1 mM EDTA, 0.1% p-mercaptoethanol, 0.01% Brij-35, 5% glycerol and 1 mg/ml BSA.
The reaction is initiated by the addition of the MgATP mix. After incubation for 40 minutes at room temperature, the reaction is stopped by the addition of 5 μL of a 3% phosphoric acid solution. 10 μL of the reaction is then spotted onto a P30 filtermat and washed three times for 5 minutes in 75 mM phosphoric acid and once in methanol prior to drying and scintillation counting.

[1] = in vitro metabolism of prodrug to active drug; format: in vitro ADME; details: rat plasma, rat hepatic and intestinal microsomal preparations
Source text: Although phosphate-containing prodrugs suitable for oral administration are of interest, skilled artisans will appreciate that prodrugs including phosphate-containing progroups R^p can be administered via other routes of administration, as phosphatases are distributed throughout the body. […] Thus, the only requirement is that the particular phosphate-containing progroup R^p selected should be removable under the conditions of intended use.

[2] = in vivo metabolism of prodrug to active drug
Source text: It has recently been discovered that a phosphate-containing prodrug according to the structure illustrated below (Compound P-1):
19, 2006 (US2006/0211657 A1), at paragraphs 134-142 and 146 of the printed publication.

Ret = molecular target: T1, Ret (Homo sapiens, UniProt P07949); assay: Ret autophosphorylation, fluorescence polarization assay; format: biochemical; details: 4 ng Ret, 5 μM ATP, 20 min; read-out: IC50 for inhibition of Ret autophosphorylation
T1 construct: purchased Upstate 14-570
T1 sequence (P07949 658-1114 limits assumed): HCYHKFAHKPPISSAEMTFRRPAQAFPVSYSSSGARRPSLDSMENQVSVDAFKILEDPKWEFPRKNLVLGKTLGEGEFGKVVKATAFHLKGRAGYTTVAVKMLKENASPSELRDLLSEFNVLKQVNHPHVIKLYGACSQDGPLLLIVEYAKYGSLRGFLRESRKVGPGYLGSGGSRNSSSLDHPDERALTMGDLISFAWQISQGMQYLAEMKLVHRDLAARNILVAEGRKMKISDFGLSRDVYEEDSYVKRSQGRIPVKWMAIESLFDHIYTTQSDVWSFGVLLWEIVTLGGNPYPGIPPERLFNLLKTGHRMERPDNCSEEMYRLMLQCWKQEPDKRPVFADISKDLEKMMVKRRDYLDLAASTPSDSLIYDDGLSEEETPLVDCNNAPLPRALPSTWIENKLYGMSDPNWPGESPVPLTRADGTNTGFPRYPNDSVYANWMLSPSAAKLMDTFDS
Description: Compounds were serially diluted in DMSO starting from 500× the desired final concentration and then diluted to 1% DMSO in kinase buffer (20 mM HEPES, pH 7.4, 5 mM MgCl2, 2 mM MnCl2, 1 mM DTT, 0.1 mg/mL acetylated BGG). Compound in 1% DMSO (0.2% DMSO final) was mixed with ATP in kinase buffer at room temperature.
Reactions were allowed to proceed at room temperature.
The plates were incubated for 30 minutes in the dark at room temperature and then read on a Polarion fluorescence polarization plate reader (Tecan).
Data were converted to amount of phosphopeptide present using a calibration curve generated by competition with the phosphopeptide competitor provided in the Tyrosine Kinase Assay Kit, Green (Invitrogen).

[3] = compound concentration 0.2 micromoles
[4] = compound concentration 1 micromoles
[5] = compound concentration 0.02 micromoles
[6] = compound concentration 0.03 micromoles
[7] = compound concentration 0.3 micromoles

Ret (h), sequence (P07949 29-1114): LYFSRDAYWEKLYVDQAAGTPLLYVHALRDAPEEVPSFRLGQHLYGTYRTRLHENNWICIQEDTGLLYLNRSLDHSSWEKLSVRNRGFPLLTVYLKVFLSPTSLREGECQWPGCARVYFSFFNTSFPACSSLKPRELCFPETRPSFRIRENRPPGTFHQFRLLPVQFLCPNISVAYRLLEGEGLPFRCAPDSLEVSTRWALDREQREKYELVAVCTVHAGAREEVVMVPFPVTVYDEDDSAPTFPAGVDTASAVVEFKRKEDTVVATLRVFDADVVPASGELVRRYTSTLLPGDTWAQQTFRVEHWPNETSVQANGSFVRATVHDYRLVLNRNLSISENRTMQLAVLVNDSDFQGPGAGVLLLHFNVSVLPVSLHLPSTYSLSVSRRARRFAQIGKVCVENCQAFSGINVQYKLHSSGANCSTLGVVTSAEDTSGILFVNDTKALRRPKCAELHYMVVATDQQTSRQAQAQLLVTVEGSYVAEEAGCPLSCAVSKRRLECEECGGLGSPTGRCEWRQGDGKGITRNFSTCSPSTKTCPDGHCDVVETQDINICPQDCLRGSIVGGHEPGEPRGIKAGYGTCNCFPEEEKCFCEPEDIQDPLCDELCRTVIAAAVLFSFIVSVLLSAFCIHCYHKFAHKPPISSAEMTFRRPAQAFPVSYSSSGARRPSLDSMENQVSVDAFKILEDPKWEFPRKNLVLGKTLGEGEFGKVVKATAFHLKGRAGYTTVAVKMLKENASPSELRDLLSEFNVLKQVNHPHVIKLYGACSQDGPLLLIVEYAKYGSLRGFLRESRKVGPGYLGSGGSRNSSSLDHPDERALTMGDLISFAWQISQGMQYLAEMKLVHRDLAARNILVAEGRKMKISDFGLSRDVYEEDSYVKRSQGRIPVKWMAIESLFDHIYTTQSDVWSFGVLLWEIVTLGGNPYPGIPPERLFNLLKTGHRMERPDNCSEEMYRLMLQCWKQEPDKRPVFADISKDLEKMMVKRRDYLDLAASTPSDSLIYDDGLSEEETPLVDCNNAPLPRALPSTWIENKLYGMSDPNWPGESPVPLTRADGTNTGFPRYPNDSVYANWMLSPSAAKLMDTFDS

Compound | RET kinase autophosphorylation activity as a percentage of control RET kinase activity (Ret (h); [3]) | RET kinase autophosphorylation activity as a percentage of control RET kinase activity (Ret (h); [4]) | IC50 (Ret) | further results
Cc1ccc(Nc2ncc(F)c(Nc3ccc(OCC#N)cc3)n2)cc1S(N)(=O)=O [Compound 10] | 19% | 1% | – | –
Cc1cc(Nc2ncc(F)c(NC3CCCC3C(N)=O)n2)ccc1N1CCN(C)CC1 (centres unmarked) [Compound 7, 2-(5-fluoro-2-(3-methyl-4-(4-methylpiperazin-1-yl)phenylamino)pyrimidin-4-ylamino)cyclo-pentanecarboxamide] | 34% | 2% | – | RET kinase autophosphorylation activity as a percentage of control RET kinase activity (Ret (h); [5]): 74%
Cc1noc(COc2ccc(Nc3nc(Nc4cccc(O)c4)ncc3F)cc2)n1 [Compound 5, 3-(5-fluoro-4-(4-((3-methyl-1,2,4-oxadiazol-5-yl)methoxy)phenylamino)pyrimidin-2-ylamino)phenol] | – | 0% | – | RET kinase autophosphorylation activity as a percentage of control RET kinase activity (Ret (h); compound concentration 0.01 micromoles): 0%; RET kinase autophosphorylation activity as a percentage of control RET kinase activity (Ret (h); [6]): 0%; RET kinase autophosphorylation activity as a percentage of control RET kinase activity (Ret (h); compound concentration 0.1 micromoles): 0%; RET kinase autophosphorylation activity as a percentage of control RET kinase activity (Ret (h); [7]): 0%
COc1cc(Nc2ncc(F)c(Nc3ccc4c(n3)N(COP(=O)(O)O)C(=O)C(C)(C)O4)n2)cc(OC)c1OC [Compound 9, (6-(5-fluoro-2-(3,4,5-trimethoxyphenylamino)pyrimidin-4-ylamino)-2,2-dimethyl-3-oxo-2H-pyrido[3,2-b][1,4]oxazin-4(3H)-yl)methyldihydrogenphosphate] | – | 11% | – | RET kinase autophosphorylation activity as a percentage of control RET kinase activity (Ret (h); [7]): 47%; metabolism of prodrug to the active drug Compound 1 [1]: metabolize to the active drug Compound 1; metabolism of prodrug to the active drug Compound 1 [2]: metabolizes in vivo to the corresponding active 2,4-pyrimidinediamine compound
Cc1nc2ccc(Nc3ncc(F)c(Nc4ccc5c(c4)NC(=O)C(C)(C)S5)n3)cc2[nH]1 [Compound 3, 6-(5-fluoro-2-(2-methyl-1H-benzo[d]imidazol-6-ylamino)pyrimidin-4-ylamino)-2,3-dimethyl-2H-benzo[b][1,4]thiazin-3(4H)-one] | – | – | 16.5 nM | –
2-(3-(4-(2,2-difluoro-3-oxo-3,4-dihydro-2H-pyrido[3,2-b][1,4]oxazin-6-ylamino)-5-fluoropyrimidin-2-ylamino)phenoxy)-N-methylacetamide [Compound 2] | – | 0% | 11.8 nM | RET kinase autophosphorylation activity as a percentage of control RET kinase activity (Ret (h); [6]): 0%; RET kinase autophosphorylation activity as a percentage of control RET kinase activity (Ret (h); compound concentration 3 micromoles): 0%
Cc1cc(Nc2cc(N3CCN(C)CC3)nc(Sc3ccc(NC(=O)C4CC4)cc3)n2)[nH]n1 [Compound 6, N-(4-(4-(3-methyl-1H-pyrazol-5-ylamino)-6-(4-methylpiperazin-1-yl)pyrimidin-2-ylthio)phenyl)cyclopropanecarboxamide] | 26% | 4% | – | RET kinase autophosphorylation activity as a percentage of control RET kinase activity (Ret (h); [5]): 78%
COc1cc(Nc2ncc(F)c(Nc3ccc4c(n3)NC(=O)C(C)(C)O4)n2)cc(O)c1OC [Compound 4, 6-(5-fluoro-2-(3-hydroxy-4,5-dimethoxy-phenylamino)pyrimidin-4-ylamino)-2,2-dimethyl-2H-pyrido[3,2-b][1,4]oxazin-3(4H)-one] | – | – | 7.3 nM | –
